# Measured values published in US11446269B2, “Methods of reducing or preventing oxidation of small dense LDL or membrane polyunsaturated fatty acids” (Amarin Pharmaceuticals Ireland Limited, priority 2014, dated 2022).
# Tested on: HUVECs
# Assay: NO and ONOO^− release from HUVECs treated concomitantly with agent-treated oxLDL (Example 11, objective 2)
# Assay type: cell-based, human
# Conditions: oxLDL 11 mg/dL treated 30 min with agents 10 μM, 60 min exposure, calcium ionophore; in nM
# Experimental: Human umbilical vein endothelial cells (HUVECs) were obtained from healthy, female donors and isolated into primary, proliferating cell cultures (Clonetics, San Diego, Calif.). The cells were incubated in 95% air/5% CO2 at 37° C. and passaged by an enzymatic (trypsin) procedure. The confluent cells (4 to 5×10^5 cells/35 mm dish) were plated with minimum essential medium containing 3 mM L-arginine and 0.1 mM BH4 [(6R)-5,6,7,8-tetrahydrobiopterin]. Before experimental use, the cells (from second or third passage) were rinsed twice with Tyrode-HEPES buffer with 1.8 mM CaCl2.
# Concurrent measurements of NO and ONOO^− were performed with tandem electrochemical nanosensors combined into one working unit with a total diameter of 200-400 nm. Their design is based on previously developed and chemically modified carbon-fiber technology. […]
# The amperometric method (with a response time of 0.1 ms) provides a quantitative signal (current) that is directly proportional to changes (from basal levels) in NO or ONOO^− concentration. […] Basal NO or ONOO^− levels were measured by differential pulse voltammetry in separate experiments.
# All measurements of NO and ONOO^− were performed on intact endothelial cells. […] Cells will then be treated with calcium ionophore (to maximally stimulate the release of nitrous molecules) and monitored continuously for changes in amperometric current. […]
structure (smiles),measurement,value
"CC/C=C\C/C=C\C/C=C\C/C=C\C/C=C\C/C=C\CCC(=O)O [DHA, docosahexaenoic acid]",ONOO^− release,240 ± 27^
